Data as given in patent US6245521A, “Assay for evaluating the affinity of compounds to the glutamate GluR5 receptor” (Eli Lilly and Company, priority 1999, dated 2001).

Columns and labels:
[1] = target: T1, human GluR1 (Homo sapiens, UniProt P42261); assay: ATPA selectivity profile in binding studies, displacement of 3[H] AMPA; conditions: HEK293 cells stably transfected with human GluR1
T1 construct: expressed in transfected cells; host or cells: HEK293
Method: (§1) Activity of compounds acting at the kainate receptor, GluR5, can be determined by radiolabeled ligand binding studies at the cloned and expressed human GluR5 receptor (Korczak et al., 1994, Recept. Channels 3; 41-49), and by whole cell voltage clamp electrophysiological recordings of currents in acutely isolated rat dorsal root ganglion neurons (Bleakman et al., 1996, Mol. Pharmacol. 49; 581-585). The selectivity of compounds acting at GluR5 receptors is determined by measurement of activity at other AMPA and kainate receptors including receptor-ligand binding studies and whole-cell voltage clamp electrophysiological recordings of functional activity at human GluR1-GluR4 receptors (Fletcher et al., 1995, Recept. Channels 3; 21-31), at human GluR6 receptors (Hoo et al., Recept. Channels 2;327-338), at AMPA receptors in acutely isolated cerebellar Purkinje neurons (Bleakman et al., 1996, Mol. Pharmacol. 49; 581-585), and other tissues expressing AMPA receptors (Fletcher and Lodge, 1996, Pharmacol. Ther. 70; 65-89).
(§2) Cell lines (HEK293 cells) stably transfected with human GluR receptors were employed. Displacement of ^3 [H] AMPA by increasing concentrations of ATPA was used on GluR1-4-expressing cells and ^3 [H] kainate (KA) on GluR5, 6, 7 KA2-expressing cells. Estimated activity (Ki) in nM was as follows.

[2] = target: T2, human GluR2 (Homo sapiens, UniProt P42262); assay: as above; conditions: HEK293 cells stably transfected with human GluR2
T2 construct: expressed in transfected cells; host or cells: HEK293
T2 sequence (P42262 25-883): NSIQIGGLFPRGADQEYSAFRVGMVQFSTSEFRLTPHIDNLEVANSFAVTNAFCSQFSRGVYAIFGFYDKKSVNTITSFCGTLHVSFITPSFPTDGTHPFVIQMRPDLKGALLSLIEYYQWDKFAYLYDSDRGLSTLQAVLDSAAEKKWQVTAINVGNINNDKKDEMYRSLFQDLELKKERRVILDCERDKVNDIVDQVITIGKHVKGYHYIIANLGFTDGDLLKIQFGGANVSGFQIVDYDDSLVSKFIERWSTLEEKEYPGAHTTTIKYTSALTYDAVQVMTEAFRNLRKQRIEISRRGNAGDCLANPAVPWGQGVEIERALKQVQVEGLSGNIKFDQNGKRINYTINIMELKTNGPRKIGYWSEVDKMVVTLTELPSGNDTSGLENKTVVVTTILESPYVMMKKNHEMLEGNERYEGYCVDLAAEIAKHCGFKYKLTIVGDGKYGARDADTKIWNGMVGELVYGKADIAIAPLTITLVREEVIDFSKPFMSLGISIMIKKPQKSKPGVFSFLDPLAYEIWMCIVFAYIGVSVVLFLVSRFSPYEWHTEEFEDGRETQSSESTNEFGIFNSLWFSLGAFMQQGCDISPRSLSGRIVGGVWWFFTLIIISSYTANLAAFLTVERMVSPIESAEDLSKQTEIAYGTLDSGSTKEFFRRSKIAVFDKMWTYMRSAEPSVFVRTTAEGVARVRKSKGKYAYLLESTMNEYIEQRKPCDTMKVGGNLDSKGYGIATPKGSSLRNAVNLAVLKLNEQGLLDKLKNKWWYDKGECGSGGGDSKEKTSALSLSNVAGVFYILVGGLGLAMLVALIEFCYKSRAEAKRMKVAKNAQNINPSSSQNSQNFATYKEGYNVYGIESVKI
Method: as §1
(§3) Cell lines (HEK293 cells) stably transfected with human GluR receptors were employed. Displacement of ^3 [H] AMPA by increasing concentrations of ATPA was used on GluR1-4-expressing cells and ^3 [H] kainate (KA) on GluR5, 6, 7 KA2-expressing cells.

[3] = target: T3, human GluR4 (Homo sapiens, UniProt P48058); assay: as above; conditions: HEK293 cells stably transfected with human GluR4
T3 construct: expressed in transfected cells; host or cells: HEK293
T3 sequence (P48058 21-902): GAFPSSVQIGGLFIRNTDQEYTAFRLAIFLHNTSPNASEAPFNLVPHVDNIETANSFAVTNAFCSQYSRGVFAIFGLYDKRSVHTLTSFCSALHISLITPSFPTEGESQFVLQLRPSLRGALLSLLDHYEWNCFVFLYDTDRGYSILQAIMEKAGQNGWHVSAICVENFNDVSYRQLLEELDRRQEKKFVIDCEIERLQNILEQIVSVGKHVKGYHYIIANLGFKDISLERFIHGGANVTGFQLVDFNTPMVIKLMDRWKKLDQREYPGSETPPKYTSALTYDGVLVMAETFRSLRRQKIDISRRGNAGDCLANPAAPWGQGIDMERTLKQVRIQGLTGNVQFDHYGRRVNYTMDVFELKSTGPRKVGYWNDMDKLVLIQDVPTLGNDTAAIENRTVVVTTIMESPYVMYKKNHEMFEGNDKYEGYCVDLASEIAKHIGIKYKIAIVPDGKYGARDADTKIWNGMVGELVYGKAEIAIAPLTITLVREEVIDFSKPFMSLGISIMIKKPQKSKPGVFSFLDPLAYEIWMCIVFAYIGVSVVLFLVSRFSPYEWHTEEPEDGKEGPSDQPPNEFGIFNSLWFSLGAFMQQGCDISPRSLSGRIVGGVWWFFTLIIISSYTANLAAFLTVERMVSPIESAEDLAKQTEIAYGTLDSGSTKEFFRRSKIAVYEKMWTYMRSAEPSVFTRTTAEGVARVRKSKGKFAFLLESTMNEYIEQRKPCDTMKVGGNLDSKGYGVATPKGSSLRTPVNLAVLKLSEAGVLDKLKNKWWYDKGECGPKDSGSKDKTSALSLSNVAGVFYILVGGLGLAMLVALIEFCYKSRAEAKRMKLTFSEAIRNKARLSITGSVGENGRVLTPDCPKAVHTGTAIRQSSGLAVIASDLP
Method: as §1, §3

[4] = target: T4, human GluR5 (Homo sapiens, UniProt P39086); assay: ATPA selectivity profile in binding studies, displacement of 3[H] kainate
T4 construct: expressed in transfected cells; host or cells: HEK293
T4 sequence (P39086 31-905 isoform P39086-2 limits assumed): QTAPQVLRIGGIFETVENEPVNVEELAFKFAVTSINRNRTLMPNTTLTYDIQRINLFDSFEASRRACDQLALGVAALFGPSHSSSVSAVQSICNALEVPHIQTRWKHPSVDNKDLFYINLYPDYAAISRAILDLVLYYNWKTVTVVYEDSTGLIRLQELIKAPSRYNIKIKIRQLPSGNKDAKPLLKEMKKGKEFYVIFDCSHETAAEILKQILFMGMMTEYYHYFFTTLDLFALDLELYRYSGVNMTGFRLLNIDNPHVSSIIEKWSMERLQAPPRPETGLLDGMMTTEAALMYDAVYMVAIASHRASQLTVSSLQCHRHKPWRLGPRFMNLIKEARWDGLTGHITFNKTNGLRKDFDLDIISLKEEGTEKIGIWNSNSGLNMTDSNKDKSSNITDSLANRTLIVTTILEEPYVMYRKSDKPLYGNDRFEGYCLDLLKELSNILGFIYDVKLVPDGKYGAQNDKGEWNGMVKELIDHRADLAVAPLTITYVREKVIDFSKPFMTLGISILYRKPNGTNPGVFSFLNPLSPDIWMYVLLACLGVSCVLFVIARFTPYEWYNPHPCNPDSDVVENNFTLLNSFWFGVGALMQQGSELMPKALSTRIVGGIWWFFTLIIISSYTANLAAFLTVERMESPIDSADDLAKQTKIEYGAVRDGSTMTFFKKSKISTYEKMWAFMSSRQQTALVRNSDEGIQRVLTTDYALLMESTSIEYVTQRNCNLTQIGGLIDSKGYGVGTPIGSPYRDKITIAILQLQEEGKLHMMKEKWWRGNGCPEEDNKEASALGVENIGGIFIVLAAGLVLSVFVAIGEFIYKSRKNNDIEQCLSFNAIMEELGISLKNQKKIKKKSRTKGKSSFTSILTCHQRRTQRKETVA
Method: as §1, §3

[5] = target: T5, human GluR6 (Homo sapiens, UniProt Q13002); assay: as above; conditions: HEK293 cells stably transfected with human GluR6
T5 construct: expressed in transfected cells; host or cells: HEK293
T5 sequence (Q13002 32-908): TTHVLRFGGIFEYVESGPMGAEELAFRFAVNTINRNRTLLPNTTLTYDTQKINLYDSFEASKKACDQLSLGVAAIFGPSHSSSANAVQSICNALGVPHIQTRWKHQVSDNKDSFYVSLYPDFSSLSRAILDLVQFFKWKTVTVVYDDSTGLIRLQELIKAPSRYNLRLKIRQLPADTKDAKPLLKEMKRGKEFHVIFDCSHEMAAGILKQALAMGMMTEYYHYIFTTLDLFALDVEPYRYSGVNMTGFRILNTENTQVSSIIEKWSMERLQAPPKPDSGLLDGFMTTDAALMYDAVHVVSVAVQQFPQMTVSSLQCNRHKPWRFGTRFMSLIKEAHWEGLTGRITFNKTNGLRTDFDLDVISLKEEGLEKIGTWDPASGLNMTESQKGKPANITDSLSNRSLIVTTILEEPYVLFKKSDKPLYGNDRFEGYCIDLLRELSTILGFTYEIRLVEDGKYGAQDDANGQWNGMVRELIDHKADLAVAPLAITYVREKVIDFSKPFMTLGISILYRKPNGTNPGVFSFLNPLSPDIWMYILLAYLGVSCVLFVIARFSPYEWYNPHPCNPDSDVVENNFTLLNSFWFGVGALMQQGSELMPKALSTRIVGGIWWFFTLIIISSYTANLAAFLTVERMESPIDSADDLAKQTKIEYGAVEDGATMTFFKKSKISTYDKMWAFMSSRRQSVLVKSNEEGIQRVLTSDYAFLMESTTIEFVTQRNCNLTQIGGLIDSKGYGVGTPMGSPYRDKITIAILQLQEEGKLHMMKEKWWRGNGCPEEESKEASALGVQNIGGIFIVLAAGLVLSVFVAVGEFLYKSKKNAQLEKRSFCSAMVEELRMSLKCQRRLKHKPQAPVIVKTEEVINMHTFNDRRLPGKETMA
Method: as §1, §2

[6] = target: T6, human GluR7 (Homo sapiens, UniProt Q13003); assay: as above; conditions: HEK293 cells stably transfected with human GluR7
T6 construct: expressed in transfected cells; host or cells: HEK293
Method: as §1, §2

[7] = target: T7, human KA2 (Homo sapiens, UniProt Q16478); assay: as above; conditions: HEK293 cells stably transfected with human KA2
T7 construct: expressed in transfected cells; host or cells: HEK293
T7 sequence (Q16478 15-980): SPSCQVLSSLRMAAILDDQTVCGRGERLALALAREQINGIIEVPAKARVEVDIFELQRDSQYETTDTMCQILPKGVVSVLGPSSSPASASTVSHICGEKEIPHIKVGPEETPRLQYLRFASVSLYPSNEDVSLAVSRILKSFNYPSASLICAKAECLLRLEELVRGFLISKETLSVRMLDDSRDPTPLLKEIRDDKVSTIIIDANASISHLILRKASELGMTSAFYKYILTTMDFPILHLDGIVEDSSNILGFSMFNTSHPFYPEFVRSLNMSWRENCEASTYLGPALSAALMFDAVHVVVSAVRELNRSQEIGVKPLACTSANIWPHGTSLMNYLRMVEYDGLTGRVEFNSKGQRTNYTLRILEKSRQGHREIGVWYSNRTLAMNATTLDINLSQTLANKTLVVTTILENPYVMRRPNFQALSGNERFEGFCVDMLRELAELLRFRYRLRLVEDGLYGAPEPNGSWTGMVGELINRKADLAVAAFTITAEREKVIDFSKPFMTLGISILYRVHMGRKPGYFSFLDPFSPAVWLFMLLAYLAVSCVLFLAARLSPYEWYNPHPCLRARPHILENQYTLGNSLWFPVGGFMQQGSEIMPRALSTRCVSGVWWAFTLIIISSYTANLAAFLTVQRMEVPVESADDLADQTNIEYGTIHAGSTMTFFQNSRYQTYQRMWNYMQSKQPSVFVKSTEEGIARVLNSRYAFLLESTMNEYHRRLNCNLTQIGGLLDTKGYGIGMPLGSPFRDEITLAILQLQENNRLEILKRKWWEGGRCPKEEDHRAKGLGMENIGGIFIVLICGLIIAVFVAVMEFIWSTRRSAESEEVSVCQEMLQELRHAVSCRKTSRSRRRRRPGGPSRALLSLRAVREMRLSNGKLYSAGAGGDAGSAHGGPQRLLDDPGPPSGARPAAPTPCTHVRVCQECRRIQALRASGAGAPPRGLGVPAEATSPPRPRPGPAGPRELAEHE
Method: as §1, §2

[8] = target: T1, human GluR1; assay: Electrophysiological (patch-clamp) functional studies on transfected HEK293 cells; type: cell-based; conditions: vs 100 mμ AMPA
Method: as §1
(§4) Functional studies were carried out on HEK293 cells stably transfected with human GluR receptors and on acutely isolated dorsal root ganglion neurons (DRG) using patch-clamp technology (Bleakman et al., 1996, Mol. Pharmacol., 49, 581-585). EC50 values (mμ) for ATPA were estimated for GluR1-4 vs 100 mμAMPA, GluR5 vs 100 mμ KA, GluR6 vs 1 mμ KA, and DRG vs 30 mμ KA, with the following results: […]

[9] = target: T8, human GluR3 (Homo sapiens, UniProt P42263); assay: as above; type: cell-based; conditions: vs 100 mμ AMPA
T8 construct: expressed in transfected cells; host or cells: HEK293
Method: as §1, §4

[10] = target: T5, human GluR6; assay: as above; type: cell-based; conditions: vs 1 mμ KA
Method: as §1, §4

[11] = target: T2, human GluR2; assay: as above; type: cell-based; conditions: vs 100 mμ AMPA
Method: as §1
(§5) Functional studies were carried out on HEK293 cells stably transfected with human GluR receptors and on acutely isolated dorsal root ganglion neurons (DRG) using patch-clamp technology (Bleakman et al., 1996, Mol. Pharmacol., 49, 581-585).

[12] = target: T3, human GluR4; assay: as above; type: cell-based; conditions: vs 100 mμ AMPA
Method: as §1, §5

[13] = target: T4, human GluR5; assay: as above; type: cell-based
Method: as §1, §5

[14] = system: dorsal root ganglion neurons (DRG); assay: Patch-clamp functional studies on acutely isolated dorsal root ganglion neurons; type: cell-based; conditions: Rattus norvegicus, Neuron, vs 30 mμ KA
Method: as §1
Functional studies were carried out on HEK293 cells stably transfected with human GluR receptors and on acutely isolated dorsal root ganglion neurons (DRG) using patch-clamp technology (Bleakman et al., 1996, Mol. Pharmacol., 49, 581-585). […]

[15] = system: CA1 pyramidal neurons; assay: Electrophysiological test of synaptic transmission in the hippocampus; type: cell-based; conditions: ATPA 1 μM
Excerpt: As mentioned above, ATPA modulates synaptic transmission in the hippocampus. […] It is further believed that such selective modulation of GluR5 is likely to show benefits in the treatment of cognitive function.

T1 sequence (P42261 19-906): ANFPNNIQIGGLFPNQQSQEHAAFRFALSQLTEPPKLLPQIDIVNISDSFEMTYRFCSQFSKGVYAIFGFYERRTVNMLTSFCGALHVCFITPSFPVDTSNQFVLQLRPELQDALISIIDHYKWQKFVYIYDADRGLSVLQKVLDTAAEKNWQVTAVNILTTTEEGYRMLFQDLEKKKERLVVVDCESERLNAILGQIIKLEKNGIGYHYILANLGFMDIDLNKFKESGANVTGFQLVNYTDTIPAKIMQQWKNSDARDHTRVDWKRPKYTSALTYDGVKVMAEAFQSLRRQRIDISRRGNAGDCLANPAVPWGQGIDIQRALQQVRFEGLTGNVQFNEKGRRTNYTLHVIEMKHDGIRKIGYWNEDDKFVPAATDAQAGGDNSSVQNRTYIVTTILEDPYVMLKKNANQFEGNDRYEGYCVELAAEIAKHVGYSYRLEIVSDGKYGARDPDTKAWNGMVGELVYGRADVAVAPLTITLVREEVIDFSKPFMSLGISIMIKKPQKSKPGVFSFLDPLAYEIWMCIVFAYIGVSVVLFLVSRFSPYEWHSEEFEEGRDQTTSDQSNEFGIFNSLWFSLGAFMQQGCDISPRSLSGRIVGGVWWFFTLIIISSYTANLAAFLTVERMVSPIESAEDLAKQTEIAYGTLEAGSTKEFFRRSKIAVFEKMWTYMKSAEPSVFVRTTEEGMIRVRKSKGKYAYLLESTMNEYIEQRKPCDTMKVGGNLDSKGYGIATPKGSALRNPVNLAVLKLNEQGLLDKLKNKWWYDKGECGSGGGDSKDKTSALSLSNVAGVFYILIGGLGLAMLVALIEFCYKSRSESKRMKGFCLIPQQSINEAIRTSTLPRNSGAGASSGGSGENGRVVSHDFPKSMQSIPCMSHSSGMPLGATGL

SMILES: CC(C)(C)c1onc(O)c1CC(N)C(=O)O (centres unmarked) [ATPA, 2-amino-3-(3-hydroxy-5-tert-butylisoxazol-4-yl)propanoic acid]
- Estimated activity (Ki) GluR1 [1]: 17.59 µM
- Estimated activity (Ki) GluR2 [2]: 38.616 µM
- Estimated activity (Ki) GluR4 [3]: 15.747 µM
- Estimated activity (Ki) GluR5 ([4]; HEK293 cells stably transfected with human GluR5, displacement of 3[H] kainate): 0.0031 µM
- fold less potent on other human AMPA and kainate receptors than on human GluR5 in binding studies ([4]; binding studies, GluR5 vs other human AMPA and kainate receptors): more than 1000 fold
- Estimated activity (Ki) GluR6 [5]: > 1000 µM
- Estimated activity (Ki) GluR7 [6]: 14.319 µM
- Estimated activity (Ki) KA2 [7]: 38.832 µM
- EC50 [8]: > 300 µM
- EC50 [9]: > 300 µM
- EC50 [10]: > 300 µM
- EC50 [11]: > 300 µM
- EC50 [12]: > 300 µM
- EC50 ([13]; HEK293 cells, human GluR5, patch-clamp, vs 100 mμ KA): 4 ± 0.7 µM
- fold less potent on other human AMPA and kainate receptors than on human GluR5 and rat DRG neurons in electrophysiological studies ([13]; electrophysiological studies, GluR5 and rat DRG neurons vs other human AMPA and kainate receptors): 100 fold
- EC50 [14]: 0.56 µM
- effect on synaptic inhibition onto CA1 pyramidal neurons [15]: reduces synaptic inhibition onto CA1 pyramidal neurons
